These results are taken from PMC10671052, “Naphthyl-Substituted Indole and Pyrrole Carboxylic Acids as Effective Antibiotic Potentiators—Inhibitors of Bacterial Cystathionine γ-Lyase” (International Journal of Molecular Sciences, 2023).

Series [1] deals with T1, human cystathionine-γ-lyase (hCSE) (Homo sapiens, UniProt P32929).
T1 construct: His6-TEV (N, cleaved yes); host or cells: E. coli
Description: IC50 assay: inhibition of H2S production by purified hCSE, WSP5 fluorescent probe. It is filed as biochemical. The procedure:
(§1) Fluorescence spectrophotometry-based inhibitory activity toward purified bCSE and hCSE was measured in a 96-well nonbinding black plate (Greiner, Kremsmunster, Austria) at 100 μL of the reaction mixture per well. bCSE and hCSE (0.02 μM) were preincubated in a thermoshaker (Biosan, Riga, Latvia) (30 °C, 300 rpm) for 40 min in 50 mM sodium phosphate buffer (pH 8.0), supplemented with 10 μM pyridoxal 5′-phosphate (Sigma-Aldrich, St. Louis, MO, USA), 0.1% of Tween 20 (Sigma-Aldrich, St. Louis, MO, USA), and 1.2 μM Washington State Probe-5 (Cayman Chemical, Ann Arbor, MI, USA) (excitation: 500 nm, emission: 530 nm) at different concentrations of a tested inhibitor. The reaction was initiated by the addition of 100 μM L-cysteine (TCI, Chennai, Tamil Nadu, India) in 50 mM sodium phosphate buffer pH 8.0 to the reaction mixture, and the enzymatic activity was monitored for 12 h using a CLARIOstar Plus instrument (BMG LABTECH GmbH, Ortenberg, Germany). The 100 µM L-cysteine concentration used in the experiments corresponds to the maximal reported intracellular concentration in bacteria. The data were normalized to the positive and negative controls, and IC50 values were obtained by fitting to a four-parameter sigmoidal curve (inhibitor vs. response, variable slope model) in GraphPad Prism 8 software (GraphPad by Dotmatics, Boston, MA, USA). Each experiment was conducted with 2–3 technical replicates. IC50 values were means of at least two independent experiments.
(§2) For the production of S. aureus cystathionine-γ-lyase (bCSE) and of human cystathionine-γ-lyase (hCSE), plasmids pSUMO:saCSE (Addgene # 54336) and pNIC28-Bsa4 (Addgene # 42365) were employed. Cultivation of a competent E. coli cell strain (Thermo Fisher Scientific, Waltham, MA, USA), transformed with a target plasmid, was carried out on a selective solid medium with kanamycin. Bacterial cells harboring the plasmid vector were cultured at 37 °C and 180 rpm until OD600 = 0.65. Then, isopropyl β-D1-thiogalactopyranoside (IPTG) was added to a final concentration of 1 mM. To obtain bCSE, the cells were cultured for 3.5 h at 37 °C; to obtain hCSE, the cells were cultured for 18–20 h at 25 °C. After centrifugation, cells were resuspended in a buffer composed of 50 mM Tris–HCl, at a pH of 8.0, and 300 mM sodium chloride. After that, the cells were lysed by ultrasonication, with a pulse duration of 15 s and an interval between pulses of 15 s. The amplitude of the ultrasonic vibrations was 50% of the maximum. After lysis, samples were centrifuged for 15 min (20,000× g at 4 ℃). The pH of the supernatant obtained after the centrifugation was adjusted to 7.5 by the addition of a 1 M solution of Tris–OH. Then, the test sample was subjected to filtration through a polyethersulfone membrane with a pore diameter of 0.22 μm.

In the next series the test system is HEK293 cells. Description: HEK293 cytotoxicity assay (Alamar Blue). As to conditions: HEK293, 72 h. It is filed as cell-based. How it is done:
The HEK 293 cell line was obtained from the European Collection of Authenticated Cell Cultures (ECACC, cat. # 85120602, Salisbury, UK). The cells were grown in a monolayer culture in Dulbecco’s Modified Eagle’s Medium (DMEM) (PanEco, Moscow, Russia), supplemented with 2 mM L-glutamine, 1% of a penicillin/streptomycin solution (Capricorn Scientific, Ebsdorfergrund, Germany), and 10% of heat inactivated fetal bovine serum (HyClone, Cytiva, Marlborough, MA, USA) in a humidified atmosphere containing 5% of CO2 at 37 °C (Binder, Germany). For the assay, HEK 293 cells were seeded in a 96-well plate (Corning, NY, USA) in 100 μL of the complete culture medium, at a final density of 2 × 10^3 cells/well, and were cultured for 24 h for proper attachment. Subsequently, the medium was removed, and the cells were exposed to a tested inhibitor at different concentrations for 72 h in 100 μL of the fresh complete culture medium. The sensitivity of the cells to the compounds was detected using the vital dye Alamar Blue (Invitrogen, San Diego, CA, USA). The Alamar Blue assay was performed according to the procedure described by O’Brien et al.. After incubation with the tested bCSE inhibitors, 10 μL of the Alamar Blue reagent was added into each well, the cell culture plates were returned to the humidified incubator, and the fluorescence was read after 3 h. The plates were exposed to an excitation light of 545 nm wavelength, and emission at 600 nm was measured on the CLARIOstar Plus (BMG LABTECH GmbH, Ortenberg, Germany). To determine half-maximal cytotoxic concentration (CC50), a four-parameter sigmoidal curve model (GraphPad Prism 8 software) was fitted to the measurement data.
A general note: The colour change of resazurin is a common sign of viable cells or microbes.

Series [2] deals with S. aureus cystathionine-γ-lyase (bCSE) (Staphylococcus aureus, UniProt A0A0H3K724). Description: IC50 assay: inhibition of H2S production by purified bCSE, WSP5 fluorescent probe. It is filed as biochemical. The procedure: as §1, §2
A short description of a further series: in vitro. It is filed as in vitro ADME. As to conditions: human, plasma. How it is done:
Plasma protein binding was assessed using RED device inserts with built-in cellulose acetate dialysis membranes (molecular weight cutoff: 8 kDa). The final concentration of the test compound in human plasma was 5 μM. The samples were prepared by placing 300 μL of human plasma into the plasma compartment of the RED device and 500 μL of phosphate-buffered saline (pH 7.4) into the buffer compartment. The RED device was fixed to a shaker, placed in a CO2 (5%) incubator, and incubated for 6 h at 37 °C. After an equilibration step, 100 μL aliquots were taken from each compartment; 100 μL of plasma was added to the buffer compartment aliquot and 100 μL of buffer was added to the plasma compartment aliquot. After mixing, 600 μL of acetonitrile containing an internal standard was added. […] All compounds were tested in duplicate. Fraction bound fb was determined via the following equation: fb (%) = [1 − (Cb/Cp)] × 100, where Cb is the concentration of an analyte in the buffer compartment (μM), and Cp is the concentration of the analyte in the plasma compartment (μM).

Another series can be described thus: Caco-2 cell permeability. Format: in vitro ADME. Conditions: human. How it is done:
The culture medium consisted of high-glucose DMEM containing 10% of fetal bovine serum, 4 mM L-glutamine, 1% of a solution of nonessential amino acids (PanEco, Moscow, Russia), 100 U/mL penicillin, and 100 μg/mL streptomycin. The cells were maintained for 21 days at 37 °C and 5% CO2. The medium was refreshed every 3 days. A Lucifer yellow rejection assay was applied to determine cell monolayer integrity. […] The Lucifer yellow rejection value was calculated using the equation: LY % rejection = 100*(1−FIb/FIa), where FIb is the fluorescence in the basolateral compartment and FIa is the fluorescence in the apical compartment. […] Both apical-to-basolateral (AB) and basolateral-to-apical (BA) transport were assessed. For apical-to-basolateral transport, 0.3 mL of a test compound solution was added to the apical side, and 0.8 mL of HBSS with 0.5% of BSA was added to the basolateral side. For basolateral-to-apical transport, 0.8 mL of a test compound solution was added to the basolateral side and 0.3 mL of HBSS with 0.5% of BSA was added to the apical side. The Caco-2 cell monolayers were then incubated for 2 h at 37 °C. The pH values of the apical and basolateral compartments were 7.4. […] The supernatant was transferred to a vial and analyzed by liquid chromatography coupled with tandem MS (LC–MS/MS). The AB (or BA) apparent permeability coefficients (Papp, 10^–6 cm/s) were calculated according to the following formula [40, 41]: Papp = (V × ∆C)/(∆t × A × C0), where V is the volume of the receiver compartment (cm^3), C0 is the initial drug concentration in the donor compartment (μM), ∆C is the concentration in the receiver compartment (μM), ∆t is the incubation time (s), and A is the surface area of the cell monolayer (cm^2). An efflux ratio was calculated by dividing Papp (BA) by Papp (AB). All compounds were tested in duplicate.
On the technique in general: Caco-2 cells form a polarised layer with tight junctions and transporters.

Another series concerns the target bCSE. Details: method as in PMID 34112687. As to conditions: NL2 is from ref 13; read-out: experimental inhibition constant; cited from earlier work.
Series [3] relates to P. aeruginosa GIMC5016:PA1840/36/2015. Briefly: MIC of antibiotics alone and with potentiators, clinical isolate.
The subject of series [4] is A. baumannii GIMC5509:ABT-52Ts19. The description is as above.
Description: Overnight (ON) culture of a specific strain was grown in the liquid Luria–Bertani nutrient medium (LB broth, BD Difco) for 18 h at 37 °C, with agitation at 180 rpm using an Innova 44R orbital shaker (Eppendorf, Hamburg, Germany). After a certain period, 50 µL of the ON culture was transferred into 5 mL of the LB medium and grown for 3 h at 37 °C with agitation. Growth in the liquid medium was assessed by means of turbidity of the suspension, measured using a Densi-La-Meter II densitometer (Erba Lachema s.r.o., Brno, Czech Republic). Then, the bacterial suspension was diluted to the concentration 10^6 cells/mL with sterile LB and used as a seed culture [38, 39].
For the assessment of MICs, 96-well microtiter plates were utilized at 200 µL of a medium per well. Each well was filled with 100 µL of the seed culture. After that, 10 µL of a solution of each tested synthetic compound (potentiators) was added into each experimental well. Finally, 90 µL of twofold serial dilutions of an antibiotic in a sterile LB was added into individual wells.
As a positive control, we set up wells with 100 µL of the bacterial culture and 100 µL of the sterile LB medium. […] Negative-control wells contained 200 µL of the sterile medium. The plates were incubated in a thermostat for 18–20 h at 37 °C. The bacterial growth was assessed as optical density at 600 nm on a CLARIOstar microplate reader (BMG LABTECH GmbH, Ortenberg, Germany)).
Where [5] appears, read: purified hCSE 0.02 μM, 100 μM L-cysteine, WSP5 probe, mean ± SD; read-out: IC50 biochemical assay hCSE.
Setting [6] is: IC50 (uM), bCSE enzymatic IC50, rounded, repeated in Table S13.
Where [7] appears, read: IC50 (uM), bCSE enzymatic IC50, rounded, repeated in Table S14.
Setting [8] is: IC50 biochemical assay bCSE, purified bCSE 0.02 μM, 100 μM L-cysteine, WSP5 probe, mean ± SD.
Setting [9] is: P. aeruginosa GIMC5016:PA1840/36/2015, potentiator 50 µg/mL.
The mark [10] stands for this setting: A. baumannii GIMC5509:ABT-52Ts19, potentiator 50 µg/mL.

The IC50 is the concentration that gives 50% inhibition. What is called CC50 is the concentration that lowers cell viability or growth by half. Read a high CC50 as better tolerance by the cells. In general, fraction unbound refers to the share of the substance not bound to proteins or other matrix. Lower therefore signals extensive binding. In general, efflux ratio refers to the permeability from basolateral to apical divided by that in the opposite direction, in the common usage. The Papp A→B is how fast a substance crosses the layer from the apical side. A word on the Papp B→A: it is how fast a substance crosses the layer from the basolateral side.

SMILES strings stand for the structures. Like-named read-outs stand apart in the source and are kept apart here. A value given as a limit tells only on which side of the number the result lay.

T1 sequence (P32929 whole entry): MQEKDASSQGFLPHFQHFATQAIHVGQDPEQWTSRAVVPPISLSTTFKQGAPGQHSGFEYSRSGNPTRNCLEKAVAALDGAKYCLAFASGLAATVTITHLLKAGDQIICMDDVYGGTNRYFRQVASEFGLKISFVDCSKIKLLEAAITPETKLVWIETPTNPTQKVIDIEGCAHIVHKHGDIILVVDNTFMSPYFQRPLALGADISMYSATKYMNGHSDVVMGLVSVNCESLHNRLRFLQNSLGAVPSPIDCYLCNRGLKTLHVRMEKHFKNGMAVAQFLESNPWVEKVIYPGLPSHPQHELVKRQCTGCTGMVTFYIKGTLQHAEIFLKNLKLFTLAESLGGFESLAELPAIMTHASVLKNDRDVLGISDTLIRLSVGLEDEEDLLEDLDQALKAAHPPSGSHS
Sequence of S. aureus cystathionine-γ-lyase (bCSE) (A0A0H3K724 entry or part of it): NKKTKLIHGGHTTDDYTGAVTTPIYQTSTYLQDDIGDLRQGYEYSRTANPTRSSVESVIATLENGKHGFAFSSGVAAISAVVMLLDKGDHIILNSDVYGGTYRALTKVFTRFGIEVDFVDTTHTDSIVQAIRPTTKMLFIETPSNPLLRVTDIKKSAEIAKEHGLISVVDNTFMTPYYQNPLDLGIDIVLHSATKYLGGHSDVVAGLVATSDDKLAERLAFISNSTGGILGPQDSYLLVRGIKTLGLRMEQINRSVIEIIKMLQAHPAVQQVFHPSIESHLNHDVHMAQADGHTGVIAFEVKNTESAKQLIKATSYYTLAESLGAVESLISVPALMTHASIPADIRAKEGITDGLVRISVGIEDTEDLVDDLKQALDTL

For `O=C(O)c1ccc2ccn(Cc3cccc4ccccc34)c2c1` [Compound 4a], the IC50 in series [1] (setting [5]) was over 500 µM; in series [2] (setting [6]), 138 µM; in series [2] (setting [7]), 138 µM; in series [2] (IC50 (uM), bCSE enzymatic IC50, rounded, repeated in Table S15), 138 µM; in series [2] (setting [8]), 138 ± 9 µM. For the same compound, the CC50 in the series with HEK293 cells was 392 ± 21.8 µM.

In the case of `CC(C)NCC(O)COc1cccc2ccccc12` (stereo not drawn) [Propranolol, reference compound], in “in vitro” (6 h, 5 μM, pH 7.4), the Fraction bound fb was determined as 85.8%. The fraction unbound at 6 h, 5 μM in “in vitro” (pH 7.4, Fraction bound fb) is 0.142. Moreover, the efflux ratio at 2 h, 10 μM in the series “Caco-2 cell permeability” (Caco-2, Papp (BA) / Papp (AB)) was 1.04. Further, in “Caco-2 cell permeability” (Caco-2, 10 μM, 2 h, pH 7.4), the Papp A→B at 2 h, 10 μM came to 30.2 ± 2.9 ×10⁻⁶ cm/s and the Papp B→A at 2 h, 10 μM came out at 31.6 ± 1.1 ×10⁻⁶ cm/s.

On to `O=C([O-])c1cn(Cc2cccc3ccccc23)c2ccccc12.[Na+]` [Compound 1c], for which the “activity toward hCSE (in words)” value in series [1] is “did not show noticeable activity”. In series [1] (read-out: IC50 biochemical assay hCSE; purified hCSE 0.02 μM, 100 μM L-cysteine, WSP5 probe, mean ± SD), the IC50 was over 500 µM. For the same compound, the CC50 in the series with HEK293 cells stood at 308 ± 75.5 µM. Moreover, in series [2], the “activity toward bCSE (in words)” value is reported as “did not show noticeable activity”.

Turning to `Cc1oc(Cn2ccc3ccc(Br)cc32)cc1C(=O)O` [NL2, 5-((6-bromo-1H-indol-1-yl)methyl)-2-methylfuran-3-carboxylic acid], the Ki at bCSE was 1.8 µM. Further, the IC50 is over 500 µM in series [1] (setting [5]), 144 µM in series [2] (setting [6]), 144 µM in series [2] (setting [7]) and 144 ± 9 µM in series [2] (setting [8]). Further, the “MIC of Tacillin in combination with potentiator” value was found to be 32 µg/mL in series [3] (P. aeruginosa GIMC5016:PA1840/36/2015, piperacillin + tazobactam, potentiator 50 µg/mL) and 128 µg/mL in series [4] (A. baumannii GIMC5509:ABT-52Ts19, piperacillin + tazobactam, potentiator 50 µg/mL). In addition, the “MIC of Cefepim in combination with potentiator” value in series [3] (setting [9]) was 64 µg/mL; in series [4] (setting [10]), 128 µg/mL. Also, the “MIC of Gentamicin in combination with potentiator” value in series [3] (setting [9]) was over 512 µg/mL. The “MIC of Meropenem in combination with potentiator” value in series [3] (setting [9]) is 8 µg/mL; in series [4] (setting [10]), 32 µg/mL.
